# Reference: PMC9667546, “Selective Inhibition of Bruton’s Tyrosine Kinase by a Designed Covalent Ligand Leads to Potent Therapeutic Efficacy in Blood Cancers Relative to Clinically Used Inhibitors” (ACS Pharmacology & Translational Science, 2022)
# Legend:
# [1] = target: T1, TXK (Homo sapiens, UniProt P42681); assay: NanoBRET in-cell target engagement, TXK; assay type: binding
# T1 construct: host or cells: HEK296T (so in the source)
# T1 sequence (P42681 1-527): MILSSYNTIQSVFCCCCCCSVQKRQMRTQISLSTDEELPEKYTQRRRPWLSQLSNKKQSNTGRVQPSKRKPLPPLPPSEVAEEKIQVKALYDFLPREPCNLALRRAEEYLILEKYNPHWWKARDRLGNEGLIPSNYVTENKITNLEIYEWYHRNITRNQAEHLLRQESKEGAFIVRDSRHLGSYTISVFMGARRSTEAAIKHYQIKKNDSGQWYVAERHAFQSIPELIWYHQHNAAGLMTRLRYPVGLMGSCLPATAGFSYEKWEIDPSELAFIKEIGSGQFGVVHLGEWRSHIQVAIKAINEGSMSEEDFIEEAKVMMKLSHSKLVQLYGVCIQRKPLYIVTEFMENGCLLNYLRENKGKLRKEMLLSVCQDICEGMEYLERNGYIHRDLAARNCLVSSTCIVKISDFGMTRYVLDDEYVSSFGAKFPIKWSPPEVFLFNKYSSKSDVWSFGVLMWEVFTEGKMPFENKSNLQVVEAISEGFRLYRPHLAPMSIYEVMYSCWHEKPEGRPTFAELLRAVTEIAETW
# Experimental: (§1) In-cell target engagement was performed at Reaction Biology Corporation, using NanoBRET technology. Very briefly, HEK296T cells were transfected and treated in duplicate with JS25 for 1 h of incubation. The compound was diluted 10 times with 3-fold dilution, starting at 1 μM. Curve fits were performed only when the % NanoBret signal at the highest concentration of compounds was less than 55%. The IC50 values were determined using GraphPad Prism 8 ([…]).
# [2] = target: T2, TEC (Homo sapiens, UniProt P42680); assay: NanoBRET in-cell target engagement, TEC; assay type: binding
# T2 construct: host or cells: HEK296T (so in the source)
# T2 sequence (P42680 1-631): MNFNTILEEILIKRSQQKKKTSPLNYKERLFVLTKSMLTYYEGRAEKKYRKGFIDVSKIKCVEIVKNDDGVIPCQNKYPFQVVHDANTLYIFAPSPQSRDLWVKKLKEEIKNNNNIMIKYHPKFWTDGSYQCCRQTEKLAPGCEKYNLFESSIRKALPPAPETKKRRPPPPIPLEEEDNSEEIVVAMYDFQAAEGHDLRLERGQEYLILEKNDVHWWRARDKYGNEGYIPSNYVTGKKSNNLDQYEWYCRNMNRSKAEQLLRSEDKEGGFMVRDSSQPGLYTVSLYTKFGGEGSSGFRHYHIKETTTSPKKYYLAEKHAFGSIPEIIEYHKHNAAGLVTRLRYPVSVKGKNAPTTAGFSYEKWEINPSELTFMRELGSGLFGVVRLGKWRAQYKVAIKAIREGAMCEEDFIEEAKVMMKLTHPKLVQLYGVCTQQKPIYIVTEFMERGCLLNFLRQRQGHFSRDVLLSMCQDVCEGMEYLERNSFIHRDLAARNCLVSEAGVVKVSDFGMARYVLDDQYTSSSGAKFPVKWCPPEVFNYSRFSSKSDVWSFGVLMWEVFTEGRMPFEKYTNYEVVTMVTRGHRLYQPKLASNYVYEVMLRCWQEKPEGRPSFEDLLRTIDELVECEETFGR
# Experimental: as §1
# [3] = tested on: Mo1043 cells (CLL); assay: Cell viability assay (CellTiter-Glo), Mo1043; assay type: cell-based; conditions: 72 h, n = 3
# [4] = tested on: MOLM-13 cells (AML); assay: Cell viability assay (CellTiter-Glo), MOLM-13; assay type: cell-based; conditions: Homo sapiens, 72 h, n = 3
# Experimental: (§2) All cell lines were purchased from ATCC, except for DoHH-2 cells that were obtained from DSMZ. Cells were cultivated in complete DMEM supplemented with 10% (vol/vol) FBS (Gibco) and 1% of penicillin/streptomycin (Gibco). The cells were grown in a humidified atmosphere of 5% CO2 at 37°C, with the medium changed every other day.
# (§3) Cells were inoculated at a density of 5000 cells/well. Serially diluted compounds (starting at 50 μM) were added 24 h later. The assay was performed in triplicates. After 72 h of incubation, cellular viability was assessed by CellTiter-Glo (Promega) according to the manufacturer’s instructions. The values were normalized with the vehicle (DMSO), and the IC50 was calculated using GraphPad Prism 8.
# [5] = tested on: HL-60 cells (APML); assay: Cell viability assay (CellTiter-Glo), HL-60; assay type: cell-based; conditions: Homo sapiens, 72 h, n = 3
# Experimental: as §2, §3
# [6] = tested on: HBEC-5i cells; assay: Cell viability assay (CellTiter-Glo), HBEC-5i; assay type: cell-based; conditions: Homo sapiens, 72 h, n = 3
# Experimental: as §3
# Human cerebral microvascular endothelial cells (HBEC-5i) were cultured as a monolayer on attachment factor protein solution (AF)-coated T-flasks (Gibco), using DMEM/F12 medium (Gibco), supplemented with 10% FBS, 1% penicillin/streptomycin, and 40.0 μg/mL endothelial cell growth supplement (ECGS, Sigma), according to the manufacturer’s instructions. The capacity of the compounds to cross the brain–blood barrier (BBB) was evaluated using an in vitro HBEC-5i cell model, as previously described.[29] Samples from the apical and basolateral sides were collected, and fluorescence intensity was measured using a Varioskan LUX multimode microplate reader. The retention was considered the difference between the initial fluorescence of compounds (100%) and the aggregated apical and basolateral fluorescence.
# [7] = Body weight in the mice xenograft model; assay type: in vivo; conditions: up to 20 mg/kg i.p. every 2 days
# Experimental: Female adult BALB/c/NSG mice were injected subcutaneously with 1 × 10^6 Raji cells, in a 1:1 solution of Matrigel Matrix (Corning) to create solid tumors. When tumors reached 180 mm^3 on average, mice were randomized into four groups (n = 6/group), and dosing began every 2 days. […] Tumor size and body weight were monitored periodically for 12 days. At the end of the experiment, mice necropsies were performed. Stereological analysis was conducted by the Histopathology Unit at Instituto Gulbenkian de Ciência and by the Comparative Pathology Unit at Instituto de Medicina Molecular João Lobo Antunes. Quantification of metastases and cell necrosis was performed in all groups (n = 5/group). Statistical analysis was conducted using one-way ANOVA. The Dunnet test was used to analyze the statistical significance between the treatment groups and the control.
# [8] = target: BTK (Homo sapiens, UniProt Q06187); assay: BTK inhibition kinetics (ADP-Glo kinase assay); assay type: biochemical; parameters: purchased Promega Corporation V2941
# BTK, sequence (Q06187 whole entry): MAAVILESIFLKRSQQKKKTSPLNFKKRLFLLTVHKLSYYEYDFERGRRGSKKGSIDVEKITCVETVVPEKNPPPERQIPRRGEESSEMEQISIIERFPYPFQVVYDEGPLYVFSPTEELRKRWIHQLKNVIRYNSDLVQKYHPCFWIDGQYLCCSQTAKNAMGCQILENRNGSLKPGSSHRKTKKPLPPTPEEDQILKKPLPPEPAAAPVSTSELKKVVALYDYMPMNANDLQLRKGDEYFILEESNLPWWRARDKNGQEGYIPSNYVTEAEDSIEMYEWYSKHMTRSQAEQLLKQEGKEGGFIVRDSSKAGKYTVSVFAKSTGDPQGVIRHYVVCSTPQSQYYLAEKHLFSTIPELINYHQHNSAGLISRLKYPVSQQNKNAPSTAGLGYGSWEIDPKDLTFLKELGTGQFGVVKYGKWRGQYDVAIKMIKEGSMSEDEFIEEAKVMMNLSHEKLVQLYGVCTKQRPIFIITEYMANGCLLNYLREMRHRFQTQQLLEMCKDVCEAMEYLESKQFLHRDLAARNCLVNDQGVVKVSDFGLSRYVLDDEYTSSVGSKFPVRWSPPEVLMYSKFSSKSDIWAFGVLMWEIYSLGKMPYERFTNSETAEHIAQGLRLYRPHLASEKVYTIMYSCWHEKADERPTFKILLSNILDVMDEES
# [9] = HEK296T cells, 1 h incubation, average of duplicates
# [10] = BTK preincubated with inhibitor 2–60 min, ATP 50 μM
compound,measurement,setting,value
C=CC(=O)Nc1cc(C)cc(-n2c(=O)ccc3cnc4ccc(-c5ccc(NS(C)(=O)=O)cc5)cc4c32)c1 [JS25],selectivity for BTK relative to TXK,[1],~7 fold
same,IC50,[1]; [9],190 nM
same,"selectivity (kinase/BTK), TXK",[1]; IC50 kinase/IC50 BTK,6.7
same,selectivity for BTK relative to TEC,[2],~8 fold
same,IC50,[2]; [9],220 nM
same,"selectivity (kinase/BTK), TEC",[2]; IC50 kinase/IC50 BTK,7.7
same,IC50,[3],3400 ± 10 nM
same,IC50,[4],~510 nM
same,IC50,[5],1950 nM
same,IC50,[6],23400 ± 980 nM
same,body weight fluctuation by the end of the treatment,[7],no weight fluctuations were observed
same,"increase in the rate of protein inactivation compared to ibrutinib, acalabrutinib and BMX-IN-1",[8],8–200 fold
same,increased rate of inactivation (kinact/KI) relative to BMX-IN-1,[8],~18 fold
same,increased rate of inactivation (kinact/KI) relative to acalabrutinib,[8],~200 fold
same,increased rate of inactivation (kinact/KI) relative to ibrutinib,[8],approximately 8 fold
same,"kinact of JS25, fold faster compared with ibrutinib, acalabrutinib and BMX-IN-1",[8],10 fold
same,Ki,[8]; [10],0.77 ± 0.06 nM
same,kinact,[8]; [10],0.00668 s⁻¹
same,kinact/KI,[8]; [10],8.72e+06 ± 1.02e+06 M⁻¹ s⁻¹
